Test results reported in US12312359B2 (Vitae Pharmaceuticals, LLC, priority 2016, dated 2025).

Legend:
[1] = molecular target: T1, biotinylated wild-type menin and MLL-AF9 fusion protein (menin/MLL binding) (Homo sapiens, UniProt O00255); test: Assay 1: menin/MLL binding AlphaLISA assay, wild-type menin; conditions: Table 30; column head does not say wild-type or mutated menin
T1 construct: made in house; host or cells: menin: E. coli; MLL-AF9-FLAG: HEK293 cells, used as cleared lysate
T1 sequence (O00255 1-610): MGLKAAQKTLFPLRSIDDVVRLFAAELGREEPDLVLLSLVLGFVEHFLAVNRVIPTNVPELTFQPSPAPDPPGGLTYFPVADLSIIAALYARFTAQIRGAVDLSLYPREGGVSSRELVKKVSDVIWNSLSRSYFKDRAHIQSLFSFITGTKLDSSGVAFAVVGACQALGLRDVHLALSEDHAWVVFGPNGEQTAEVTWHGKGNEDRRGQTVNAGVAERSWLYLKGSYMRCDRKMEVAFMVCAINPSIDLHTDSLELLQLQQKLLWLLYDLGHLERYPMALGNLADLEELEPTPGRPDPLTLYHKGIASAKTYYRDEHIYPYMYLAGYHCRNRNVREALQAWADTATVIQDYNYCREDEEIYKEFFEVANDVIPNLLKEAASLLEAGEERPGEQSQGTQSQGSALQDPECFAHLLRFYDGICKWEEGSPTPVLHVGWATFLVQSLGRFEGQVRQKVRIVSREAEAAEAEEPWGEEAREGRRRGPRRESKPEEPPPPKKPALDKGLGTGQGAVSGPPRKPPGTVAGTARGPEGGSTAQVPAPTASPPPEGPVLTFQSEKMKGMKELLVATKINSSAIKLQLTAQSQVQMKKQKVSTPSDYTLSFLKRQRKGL
Procedure: Potencies of inhibitor compounds against menin/MLL binding were assessed by AlphaLISA assay using biotinylated (1) wild-type menin or (2) mutated menin (described in Huang et al, 2012, Nature, 482, 542-546) and MLL-AF9 fusion protein bearing a FLAG epitope at its C-terminus. Menin proteins were expressed in E. coli and covalently modified with biotin using EZ-Link™ Sulfo-NHS-Biotin (ThermoFisher Cat.No. 21217) according to manufacturer's protocol. MLL1-1,396 fused to AF91-92 and the C-terminal FLAG peptide was expressed in HEK293 cells and used as a lysate cleared at 21,000×g for 10 min.
Compounds (2 μL of solutions in DMSO) were dispensed in white 96-well half-area plates (Corning Cat.No. 3693) and incubated for 30 min at RT with 5 nM biotinylated menin and appropriate amount of MLL-AF9-FLAG lysate in 40 μL of 50 mM Tris-HCl buffer pH 7.4 containing 5% (v/v) DMSO, 50 mM NaCl, 0.01% (w/v) bovine serum albumin (BSA) and 1 mM DTT. To this incubation mixture, 40 μL of AlphaLISA anti-FLAG acceptor (PerkinElmer Cat.No. AL112C) and streptavidin donor (PerkinElmer Cat.No. 6760002) beads (10 μg/mL each) was added and incubation continued at RT for 60 min. Alpha (amplified luminescent proximity homogeneous assay) signal was measured on an Envision multi-label plate reader at the end of the incubation. All steps were conducted under dim fluorescent light.
These percent inhibition values were regressed against compound concentrations in the assay using four parameter logit non-linear curve fitting (XLFit, IDBS). The IC50 values were derived from the curve fitting as inflection points on the dose-response curves and are set out in Table 30 below.

[2] = test system: human acute monocytic leukemia cell line MV-4-11; test: Assay 2: cell proliferation assay (ATP quantitation, CellTiter-Glo), MV-4-11; assay type: cell-based; conditions: MV-4-11 cells
Procedure: Potencies of inhibitor compounds against cell proliferation was assessed against the human acute monocytic leukemia cell line MV-4-11 (ATCC® CRL-9591™) based on ATP quantitation. MV-4-11 cells or toxicity control HL-60 cells (ATCC® CCL-240™) were incubated in 96-well tissue culture plates (1.67×10^4 cells in 200 μL culture media containing 10% FBS per well) with or without test compound for 72 h at 37° C., 5% CO2. After incubation, each well was mixed by pipetting and 95 μL from each well was transferred to a well in 96-well black OptiPlate® plates (PerkinElmer). An equal volume of CellTiter-Glo® Luminescent Cell Viability Assay reagent (Promega) was added to each well, followed by mixing for 5 min on an orbital plate shaker. Luminescence was measured on a Wallac EnVision 2104 Multilabel Reader (PerkinElmer) to quantitate ATP.

SMILES	IC50 [1] [µM]	EC50 ([2]; Homo sapiens, MV4-11, 72 h) [µM]	EC50 ([2]; 72 h) [µM]
CC(C)N(C)C(=O)c1cc(F)ccc1Oc1cncnc1N1CC2(CN(CC3CCOCC3)C2)C1 [Example 225, 5-fluoro-N-isopropyl-N-methyl-2-((4-(6-((tetrahydro-2H-pyran-4-yl)methyl)-2,6-diazaspiro[3.3]heptan-2-yl)pyrimidin-5-yl)oxy)benzamide]	< 0.1	0.1 to 1	–
NC(=O)c1ccc(-c2cc(F)ccc2Oc2cncnc2N2CCC3(CCN(Cc4ccc5[nH]c(=O)[nH]c5c4)C3)C2)c(C2CC2)c1 (stereo not shown) [Example 43, 2-cyclopropyl-5′-fluoro-2′-((4-(7-((2-oxo-2,3-dihydro-1H-benzo[d]imidazol-5-yl)methyl)-2,7-diazaspiro[4.4]nonan-2-yl)pyrimidin-5-yl)oxy)-[1,1′-biphenyl]-4-carboxamide]	< 0.1	< 0.1	–
CC(C)N(C(=O)c1cc(F)ccc1Oc1cncnc1N1CC2(CN(CC[C@H]3CC[C@H](NC(=O)C(C)(C)C)CC3)C2)C1)C(C)C [Example 105, 5-fluoro-N,N-diisopropyl-2-((4-(6-(2-((1r,4r)-4-pivalamidocyclo-hexyl)ethyl)-2,6-diazaspiro[3.3]heptan-2-yl)pyrimidin-5-yl)oxy)benzamide]	< 0.1	< 0.1	–
CC(C)N(C(=O)c1cc(F)ccc1Oc1cncnc1N1CCC2(CCN(Cc3ccc4[nH]c(=O)[nH]c4c3)C2)C1)C(C)C (single isomer, unassigned) [Example 1A, 5-fluoro-N,N-diisopropyl-2-((4-(7-((2-oxo-2,3-dihydro-1H-benzo[d]imidazol-5-yl)methyl)-2,7-diazaspiro[4.4]nonan-2-yl)pyrimidin-5-yl)oxy)benzamide]	< 0.1	< 0.1	–
CC1(C)C(=O)Nc2cc(CN3CCC4(C3)CN(c3ncncc3Oc3ccc(F)cc3Cl)C4)ccc21 [Example 39, 6-((2-(5-(2-chloro-4-fluorophenoxy)pyrimidin-4-yl)-2,6-diazaspiro[3.4]octan-6-yl)methyl)-3,3-dimethylindolin-2-one]	0.1 to 1	–	–
CC(C)S(=O)(=O)Nc1cc(F)ccc1Oc1cncnc1N1CC2(CCN(C[C@H]3CC[C@H](NS(C)(=O)=O)CC3)CC2)C1 [Example 74, N-(5-fluoro-2-((4-(7-(((1r,4r)-4-(methylsulfonamido)cyclohexyl)methyl)-2,7-diazaspiro[3.5]nonan-2-yl)pyrimidin-5-yl)oxy)phenyl)propane-2-sulfonamide]	< 0.1	–	–
CC(C)c1ccccc1-c1cc(F)ccc1Nc1cnccc1N1CC2(CN(CC3CCOCC3)C2)C1 [Example 30, N-(5-fluoro-2′-isopropyl-[1,1′-biphenyl]-2-yl)-4-(6-((tetrahydro-2H-pyran-4-yl)methyl)-2,6-diazaspiro[3.3]heptan-2-yl)pyridin-3-amine]	< 0.1	–	–
CC(C)c1ncncc1-c1cc(F)ccc1Oc1cncnc1N1CCC2(CCC(Cc3ccccc3)C2)C1 (stereo not shown) [Example 59, 7-benzyl-2-(5-(4-fluoro-2-(4-isopropylpyrimidin-5-yl)phenoxy)pyrimidin-4-yl)-2-azaspiro[4.4]nonane]	≥ 1	–	–
CC(C)n1nccc1-c1cc(F)ccc1Oc1cncnc1N1CCC2(CC(=O)N(Cc3ccc4[nH]c(=O)[nH]c4c3)C2)C1 (stereo not shown) [Example 13, 5-((7-(5-(4-fluoro-2-(1-isopropyl-1H-pyrazol-5-yl)phenoxy)pyrimidin-4-yl)-3-oxo-2,7-diazaspiro[4.4]nonan-2-yl)methyl)-1H-benzo[d]imidazol-2(3H)-one]	< 0.1	–	–
CC(C)c1ncncc1-c1cc(F)ccc1Oc1cncnc1N1CCC2(CC(NCc3ccc(F)cc3)CO2)C1 (stereo not shown) [Example 20, 7-(5-(4-fluoro-2-(4-isopropylpyrimidin-5-yl)phenoxy)pyrimidin-4-yl)-N-(4-fluorobenzyl)-1-oxa-7-azaspiro[4.4]nonan-3-amine]	0.1 to 1	–	–
CC(C)CN1CC2(CCN(c3ncncc3Nc3ccc(F)cc3-c3ccccc3C(C)C)CC2)C1 [Example 246, N-(5-fluoro-2′-isopropyl-[1,1′-biphenyl]-2-yl)-4-(2-isobutyl-2,7-diazaspiro[3.5]nonan-7-yl) pyrimidin-5-amine]	< 0.1	–	–
CCc1ccccc1-c1cc(F)ccc1Cc1cnccc1N1CC2(CN(CC3CCOCC3)C2)C1 [Example 78, 2-(3-((2′-ethyl-5-fluoro-[1,1′-biphenyl]-2-yl)methyl)pyridin-4-yl)-6-((tetrahydro-2H-pyran-4-yl)methyl)-2,6-diazaspiro[3.3]heptane]	0.1 to 1	–	–

Continued, values first:

IC50 [1] [µM]	EC50 ([2]; Homo sapiens, MV4-11, 72 h) [µM]	EC50 ([2]; 72 h) [µM]	SMILES
< 0.1	< 0.1	–	CC(C)N(C)C(=O)c1cc(F)ccc1Oc1cncnc1N1CCC2(CCN(Cc3ccc4[nH]c(=O)[nH]c4c3)C2)C1 (single isomer, unassigned) [Example 183A, 5-fluoro-N-isopropyl-N-methyl-2-((4-(7-((2-oxo-2,3-dihydro-1H-benzo[d]imidazol-5-yl)methyl)-2,7-diazaspiro[4.4]nonan-2-yl)pyrimidin-5-yl)oxy)benzamide]
< 0.1	< 0.1	–	CC(C)c1ccccc1-c1cc(F)ccc1Oc1cncnc1N1CCC2(CCN(Cc3ccc4[nH]c(=O)[nH]c4c3)C2)C1 (single isomer, unassigned) [Example 41A, 5-((7-(5-((5-fluoro-2′-isopropyl-[1,1′-biphenyl]-2-yl)oxy)pyrimidin-4-yl)-2,7-diazaspiro[4.4]nonan-2-yl)methyl)-1H-benzo[d]imidazol-2(3H)-one]
–	–	< 0.1	CC(O)c1ccccc1-c1cc(F)ccc1Oc1cncnc1N1CCC2(CCN(Cc3ccc4[nH]c(=O)[nH]c4c3)C2)C1 (single isomer, unassigned) [Example 60D, 5-((7-(5-((5-fluoro-2′-(1-hydroxyethyl)-[1,1′-biphenyl]-2-yl)oxy)pyrimidin-4-yl)-2,7-diazaspiro[4.4]nonan-2-yl)methyl)-1H-benzo[d]imidazol-2(3H)-one]
–	–	< 0.1	CC(O)c1ccccc1-c1cc(F)ccc1Oc1cncnc1N1CCC2(CCN(Cc3ccc4[nH]c(=O)[nH]c4c3)C2)C1 (single isomer, unassigned) [Example 60B, 5-((7-(5-((5-fluoro-2′-(1-hydroxyethyl)-[1,1′-biphenyl]-2-yl)oxy)pyrimidin-4-yl)-2,7-diazaspiro[4.4]nonan-2-yl)methyl)-1H-benzo[d]imidazol-2(3H)-one]
0.1 to 1	–	–	N#Cc1ccc(-c2cc(F)ccc2Oc2cncnc2N2CCC3(CCC(N)(Cc4ccccc4)C3)C2)c(C2CC2)c1 (single isomer, unassigned) [Example 250A, 2′-((4-(7-amino-7-benzyl-2-azaspiro[4.4]nonan-2-yl)pyrimidin-5-yl)oxy)-2-cyclopropyl-5′-fluoro-[1,1′-biphenyl]-4-carbonitrile]
< 0.1	–	–	Cc1noc(C(C)C)c1-c1cc(F)ccc1Nc1cncnc1N1CC2(CN(CC3CCOCC3)C2)C1 [Example 14A, N-(4-fluoro-2-(5-isopropyl-3-methylisoxazol-4-yl)phenyl)-4-(6-((tetrahydro-2H-pyran-4-yl)methyl)-2,6-diazaspiro[3.3]heptan-2-yl)pyrimidin-5-amine]
–	–	< 0.1	CC(O)c1ccccc1-c1cc(F)ccc1Oc1cncnc1N1CCC2(CCN(Cc3ccc4[nH]c(=O)[nH]c4c3)C2)C1 (single isomer, unassigned) [Example 60C, 5-((7-(5-((5-fluoro-2′-(1-hydroxyethyl)-[1,1′-biphenyl]-2-yl)oxy)pyrimidin-4-yl)-2,7-diazaspiro[4.4]nonan-2-yl)methyl)-1H-benzo[d]imidazol-2(3H)-one]
